Measured values from the NIST ThermoML archive (doi:10.1021/je401026a).
± gives the expanded uncertainty stated by the source.

Details: 298 K; Liquid; Gas chromatography

Compound | vapor or sublimation pressure [kPa]
CCCCC(CC)COP(=O)(Oc1ccccc1)Oc1ccccc1 (stereo unspecified) [2-ethylhexyl diphenyl phosphate] | 8.9e-08 ± 6.3e-08
O=P(OCCCl)(OCCCl)OCCCl [tris(2-chloroethyl) phosphate] | 4.8e-05 ± 2.2e-05
CC(CCl)OP(=O)(OC(C)CCl)OC(C)CCl (stereo unspecified) [tris(1-chloro-2-propyl) phosphate] | 3.5e-05 ± 1.7e-05
CCCCOCCOP(=O)(OCCOCCCC)OCCOCCCC [tris(2-butoxyethyl) phosphate] | 4.9e-08 ± 3.8e-08
CC(C)c1ccccc1OP(=O)(Oc1ccccc1C(C)C)Oc1ccccc1C(C)C [tris(2-(1-methylethyl)-phenol) phosphate] | 6e-09 ± 9e-09
Cc1ccc(OP(=O)(Oc2ccc(C)cc2)Oc2ccc(C)cc2)cc1 [phosphoric acid, tri-p-cresyl ester] | 1.1e-08 ± 1.2e-08
Cc1cccc(OP(=O)(Oc2cccc(C)c2)Oc2cccc(C)c2)c1 [tri-m-tolyl phosphate] | 2.1e-08 ± 1.8e-08
O=P(OC(CCl)CCl)(OC(CCl)CCl)OC(CCl)CCl [tris(1,3-dichloro-2-propanol) phosphate] | 4.1e-07 ± 2.8e-07
CCCCC(CC)COP(=O)(OCC(CC)CCCC)OCC(CC)CCCC (stereo unspecified) [tris(2-ethylhexyl) phosphate] | 2.1e-08 ± 1.8e-08
O=P(Oc1ccccc1)(Oc1ccccc1)Oc1ccccc1 [triphenyl phosphate] | 2.7e-07 ± 2e-07
Cc1ccccc1OP(=O)(Oc1ccccc1C)Oc1ccccc1C [tri-2-tolyl phosphate] | 5.1e-08 ± 2.6e-08
